Assay results taken from US7547804B2, “Compounds, compositions, and methods employing same” (Myriad Genetics, Inc., priority 2002, dated 2009).

system: LNCaP cell lines; assay: WST-1 Cell Proliferation and Viability Assay; format: cell-based; details: Homo sapiens; LNCaP cells, compound incubation 18-72 hours
Procedure, shortened: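 LNCaP cells (5000/well, phenol-red-free RPMI-1640 with 10% FCS) were plated overnight, then exposed to compounds in 0.1% DMSO final for 18-72 hours at 37 °C. Viability was read by WST-1 conversion to formazan after 3 h further incubation, measured at A490-A650.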

| Structure (SMILES) | EC50 [µM] |
| --- | --- |
| O=C(Nc1cc(C(F)(F)F)ccc1NCC(c1ccccc1)c1ccccc1)c1cc(Cl)ccc1O [Compound 275] | 3 |
| O=C(Nc1cc(C(F)(F)F)ccc1OCCOc1ccccc1)c1cc(Cl)ccc1O [Compound 297] | 0.9 |
| O=C(NCCc1cccc(OCc2ccccc2)c1)c1cc(Cl)ccc1O [Compound 90] | 18 |
| O=C(Nc1cc(C(F)(F)F)ccc1OCCC(F)(F)F)c1cc(Cl)ccc1O [Compound 271] | 0.9 |
| O=C(Nc1ccccc1OC1CCCC[C@H]1c1ccccc1)c1cc(Cl)ccc1O (stereo partly drawn) [Compound 126] | 6 |
| O=C(Nc1cccc(CNc2ccccc2)c1)c1cc(Cl)ccc1O [Compound 36] | 21 |
| O=C(Nc1cc(Cl)ccc1OCCc1ccccc1F)c1cc(Cl)ccc1O [Compound 107] | 2 |
| Cc1cc(C)c(CCOc2ccc(C(F)(F)F)cc2NC(=O)c2cc(Cl)ccc2O)c(C)c1 [Compound 135] | 0.8 |
| Cc1ccc(NC(=O)c2cc(Cl)ccc2O)c(OCCc2ccccc2)c1 [Compound 150] | 6 |
| COc1ccccc1CCOc1cccc(NC(=O)c2cc(-c3ccc(Cl)c(Cl)c3)ccc2O)c1 [Compound 341] | 9 |
| CN(CC(=O)OC(C)(C)C)c1ccc(NC(=O)c2cc(Cl)ccc2O)cc1C(F)(F)F [Compound 372] | 2 |
| O=C(Nc1cc(Cl)cc(Cl)c1OCCc1ccccc1C(F)(F)F)c1cc(Cl)ccc1O [Compound 172] | 3 |
| CN(CCc1ccccn1)c1ccc(NC(=O)c2cc(Cl)ccc2O)cc1C(F)(F)F [Compound 364] | 7 |
| Cc1cc(OCCc2cccc(C(F)(F)F)c2)c(NC(=O)c2cc(Cl)ccc2O)cc1Cl [Compound 243] | 1 |
| O=C(Nc1cc(C(F)(F)F)ccc1OCCc1cccc(OC(F)(F)F)c1)c1cc(Cl)ccc1O [Compound 285] | 0.9 |
| O=C(Nc1cccc(CCOc2ccccc2)c1)c1cc(Cl)ccc1O [Compound 18] | 10 |
| O=C(Nc1ccc(OCCc2ccccc2)cc1C(F)(F)F)c1cc(Cl)ccc1O [Compound 156] | 16 |
| Cc1cc(C)c(OCCc2ccccc2)c(NC(=O)c2cc(Cl)ccc2O)c1 [Compound 101] | 4 |
| O=C(Nc1ccc(NCCc2cccc(C(F)(F)F)c2)c(C(F)(F)F)c1)c1cc(Cl)ccc1O [Compound 363] | 4 |
| O=CNc1cc(Cl)cc(C(=O)Nc2cc(Cl)ccc2OCCc2ccccc2)c1O [Compound 331] | 12.4 |
| O=C(NCc1ccc(F)c(C(F)(F)F)c1)c1cc(Cl)ccc1O [Compound 319] | 17.7 |
| O=C(Nc1cc(C(F)(F)F)ccc1NCc1cccc2ccccc12)c1cc(Cl)ccc1O [Compound 277] | 3 |
| O=C(Nc1ccccc1C(F)(F)F)c1cc(Cl)ccc1O [Compound 58] | 10 |
| O=C(Nc1cc(C(F)(F)F)ccc1OCc1ccccc1)c1cc(Cl)ccc1O [Compound 266] | 0.9 |

| Structure (SMILES) | EC50 [µM] |
| --- | --- |
| COc1ccc(OCCc2ccccc2C(F)(F)F)c(NC(=O)c2cc(Cl)ccc2O)c1 [Compound 170] | 4 |
| O=C(Nc1cc(C(F)(F)F)ccc1OCCCc1ccccc1)c1cc(Cl)ccc1O [Compound 141] | 1 |
| O=C(Nc1cc(C(F)(F)F)ccc1OCc1cccc(OC(F)(F)F)c1)c1cc(Cl)ccc1O [Compound 334] | 9 |
| Cc1cccc(CCOc2cccc(NC(=O)c3cc(Cl)ccc3O)c2)c1 [Compound 57] | 15 |
| Cc1ccccc1COc1ccc(C(F)(F)F)cc1NC(=O)c1cc(Cl)ccc1O [Compound 312] | 0.85 |
| COc1ccccc1CCOc1cccc(NC(=O)c2cc(-c3cccc(C(F)(F)F)c3)ccc2O)c1 [Compound 352] | 7 |
| Cc1ccc(NC(=O)c2cc(Cl)ccc2O)c(OCCc2ccccc2C(F)(F)F)c1 [Compound 171] | 5 |
| COc1ccccc1CCOc1cccc(NC(=O)c2cc(Cl)c(F)cc2O)c1 [Compound 355] | 15 |
| COc1ccccc1CCNc1ccc(C(F)(F)F)cc1NC(=O)c1cc(Cl)ccc1O [Compound 274] | 4 |
| COc1ccc(OCCc2ccccc2)c(NC(=O)c2cc(Cl)ccc2O)c1 [Compound 147] | 6 |
| COc1ccccc1CCOc1cccc(NC(=O)c2cc(-c3ccccc3)ccc2O)c1 [Compound 234] | 10 |
| Cc1cccc(C(=O)Nc2cccc(OCCc3ccccc3)c2)c1O [Compound 210] | 22 |
| O=C(Nc1cc(Cl)ccc1OCCc1ccc(C(F)(F)F)cc1)c1cc(Cl)ccc1O [Compound 99] | 1 |
| COc1ccccc1CCOc1cccc(NC(=O)c2cccc(C(C)C)c2O)c1 [Compound 203] | 33 |
| CC(C)c1cccc(-c2cccc(CNC(=O)c3cc(Cl)ccc3O)c2)c1 [Compound 175] | 14 |
| O=C(Nc1cc(Cl)ccc1OCCc1ccccc1Cl)c1cc(Cl)ccc1O [Compound 110] | 1 |
| Cc1cc(Cl)c(OCCc2ccccc2C(F)(F)F)c(NC(=O)c2cc(Cl)ccc2O)c1C [Compound 240] | 10 |
| O=C(Nc1cccc(OCCc2cccc(C(F)(F)F)c2)c1)c1cc(Cl)ccc1O [Compound 125] | 6 |
| O=C(Nc1cc(Cl)ccc1OCCc1ccccc1)c1cnc2cc(C(F)(F)F)ccc2c1O [Compound 166] | 10 |
| O=C(Nc1cccc(OCCc2ccccc2)c1)c1cc(Br)ccc1O [Compound 193] | 7 |
| O=C(Nc1cc(C(F)(F)F)ccc1OCCc1ccc(OC(F)(F)F)cc1)c1cc(Cl)ccc1O [Compound 162] | 0.9 |
| Cc1cccc(CCOc2ccc(Cl)cc2NC(=O)c2cc(Cl)ccc2O)c1 [Compound 77] | 1 |
| O=C(NCc1cccc(OCCc2ccccc2)c1)c1cc(Cl)ccc1O [Compound 66] | 50 |
| COc1ccccc1CCOc1cccc(NC(=O)c2cc(F)ccc2O)c1 [Compound 183] | 19 |

| Structure (SMILES) | EC50 [µM] |
| --- | --- |
| COc1ccccc1CCOc1ccc(Cl)cc1NC(=O)c1cc(Cl)ccc1O [Compound 133] | 3 |
| Cc1ccc(COc2ccc(C(F)(F)F)cc2NC(=O)c2cc(Cl)ccc2O)cc1 [Compound 332] | 0.74 |
| O=C(c1ccccc1)c1cccc(NC(=O)c2cc(Cl)ccc2O)c1 [Compound 21] | 9 |
| COc1ccccc1CCOc1cccc(NC(=O)c2cccc(C)c2O)c1 [Compound 207] | 33 |
| COc1cccc(-c2ccc(O)c(C(=O)Nc3cccc(OCCc4ccccc4OC)c3)c2)c1 [Compound 235] | 6 |
| O=C(Nc1cc(Cl)ccc1OCCc1ccc(Cl)cc1)c1cc(Cl)ccc1O [Compound 87] | 0.9 |
| O=C(Nc1cccc(CNc2ccc(Cl)cc2)c1)c1cc(Cl)ccc1O [Compound 74] | 9 |
| O=C(Nc1cccc(Cl)c1OCCc1cccc(C(F)(F)F)c1)c1cc(Cl)ccc1O [Compound 158] | 2 |
| O=C(Nc1cccc(Cl)c1OCCc1ccccc1C(F)(F)F)c1cc(Cl)ccc1O [Compound 137] | 5 |
| O=C(Nc1ccc(C(F)(F)F)cc1)c1cc(Cl)ccc1O [Compound 61] | 1 |
| Cc1cc(OCCc2ccccc2)c(NC(=O)c2cc(Cl)ccc2O)cc1Cl [Compound 153] | 1 |
| Cc1ccccc1COc1cccc(NC(=O)c2cc(Cl)ccc2O)c1 [Compound 84] | 14 |
| O=C(NCCc1ccc(OCc2ccccc2)c(OCc2ccccc2)c1)c1cc(Cl)ccc1O [Compound 69] | 14 |
| COc1ccccc1CCOc1cccc(NC(=O)c2cc(-c3ccc4c(c3)OCO4)ccc2O)c1 [Compound 348] | 17 |
| O=C(Nc1cc(C(F)(F)F)ccc1Oc1ccc(Cl)c2ccccc12)c1cc(Cl)ccc1O [Compound 264] | 1 |
| CCC(COc1cc(NC(=O)c2cc(Cl)ccc2O)ccc1C)c1ccccc1 (stereo not drawn) [Compound 127] | 2 |
| COc1ccccc1CCOc1cccc(NC(=O)c2cccc(-c3ccccc3)c2O)c1 [Compound 221] | 17 |
| O=C(Nc1cccc(OCC2(c3ccccc3)CC2)c1)c1cc(Cl)ccc1O [Compound 44] | 5 |
| O=C(Nc1cc(Cl)ccc1OCCc1cccc(Cl)c1)c1cc(Cl)ccc1O [Compound 109] | 1 |
| CCN(CC)CCN(CC)c1ccc(NC(=O)c2cc(Cl)ccc2O)c(OCCc2cccc(C(F)(F)F)c2)c1 [Compound 361] | 8 |
| O=C(Nc1cccc(OCc2ccccc2)c1)c1cc(Cl)ccc1O [Compound 15] | 12 |
| COCCN(C)c1ccc(NC(=O)c2cc(Cl)ccc2O)cc1C(F)(F)F [Compound 365] | 2 |
| O=C(Nc1cc(C(F)(F)F)ccc1SCCc1ccccc1)c1cc(Cl)ccc1O [Compound 259] | 1 |

same assay, conditions: Homo sapiens; LNCaP cells; flagged "Estimated": based on actual data at different concentrations

| Structure (SMILES) | EC50 [µM] |
| --- | --- |
| O=C(Nc1cc(NC(=O)c2cc(Cl)ccc2O)cc(C(F)(F)F)c1)c1cc(Cl)ccc1O [Compound 151] | 30 |
| O=C(NCc1cccc(C(F)(F)F)c1)c1cc(Cl)ccc1O [Compound 121] | 30 |
| O=C(Nc1cc(C(F)(F)F)ccc1N1CCCC(C(=O)O)C1)c1cc(Cl)ccc1O (stereo not drawn) [Compound 316] | 40 |
| O=C(NCc1cccc(-c2ccccc2)c1)c1ccccc1O [Compound 199] | 47 |
| O=C(NCc1cccc(-c2ccccc2)c1)c1cc(-c2ccc(F)cc2F)ccc1O [Compound 220] | 20 |
| O=C(NCc1ccc(Cl)c(-c2ccccc2)c1)c1cc(Cl)ccc1O [Compound 292] | 30 |
| COc1ccccc1CCOc1cccc(NC(=O)c2cc(Cl)ccc2[N+](=O)[O-])c1 [Compound 229] | 30 |
| COc1ccccc1CCOc1cccc(N(C)C(=O)c2cc(Cl)ccc2O)c1 [Compound 228] | 30 |
| O=C(NCc1ccccc1OCCc1ccccc1)c1cc(Cl)ccc1O [Compound 116] | 30 |
| CC(=O)Nc1cc(F)c(F)cc1C(=O)Nc1cccc(OCCc2ccccc2)c1 [Compound 7] | 30 |
| Cc1ccccc1-c1cccc(CNC(=O)c2cc(Cl)ccc2O)c1 [Compound 144] | 30 |
| O=C(NCc1cc(-c2ccccc2)ccc1Cl)c1cc(Cl)ccc1O [Compound 293] | 30 |
| O=C(NCc1ccccc1-c1ccccc1)c1cc(Cl)ccc1O [Compound 237] | 30 |
